Where “and” joins values, the source holds several entries; their conditions need not be identical. Equal values may be shown once. Inconclusive results and toxic doses are left out. How the source made its calls: active means survival T/C of 150% or more; inactive means T/C below 125% in these data.
System: P388 leukemia ip, CD2F1 mice, survival T/C
Assay: NCI In Vivo Anticancer Drug Screen. Data for tumor model P388 Leukemia (intraperitoneal) in CD2F1 (CDF1) mice
Settings: endpoint: median survival time, higher = longer survival
Outline: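 Mice carrying the transplanted tumor received test compound or vehicle. Survival was recorded in each group, and the value is the treated-group measurement divided by that of the vehicle-treated control group.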

[1] = dose: 25.0 mg/kg/injection, schedule: Q01DX009 (ip), vehicle: saline with Tween-80
[2] = dose: 50.0 mg/kg/injection, schedule: Q01DX009 (ip), vehicle: saline with Tween-80
[3] = dose: 60.0 mg/kg/injection, schedule: Q01DX005 (ip), vehicle: saline with Tween-80
[4] = dose: 120.0 mg/kg/injection, schedule: Q01DX005 (ip), vehicle: saline with Tween-80
[5] = dose: 240.0 mg/kg/injection, schedule: Q01DX005 (ip), vehicle: saline with Tween-80
[6] = dose: 25.0 mg/kg/injection, schedule: Q01DX009 (ip), vehicle: saline
[7] = dose: 50.0 mg/kg/injection, schedule: Q01DX009 (ip), vehicle: saline
[8] = dose: 60.0 mg/kg/injection, schedule: Q01DX005 (ip), vehicle: Klucel (hydroxypropylcellulose) (HPC)
[9] = dose: 240.0 mg/kg/injection, schedule: Q01DX005 (ip), vehicle: Klucel (hydroxypropylcellulose) (HPC)
[10] = dose: 50.0 mg/kg/injection, schedule: Q01DX005 (ip), vehicle: Klucel (hydroxypropylcellulose) (HPC)
[11] = dose: 100.0 mg/kg/injection, schedule: Q01DX005 (ip), vehicle: Klucel (hydroxypropylcellulose) (HPC)
[12] = dose: 200.0 mg/kg/injection, schedule: Q01DX005 (ip), vehicle: Klucel (hydroxypropylcellulose) (HPC)
[13] = dose: 100.0 mg/kg/injection, schedule: Q01DX009 (ip), vehicle: saline
[14] = dose: 200.0 mg/kg/injection, schedule: Q01DX009 (ip), vehicle: saline
[15] = dose: 120.0 mg/kg/injection, schedule: Q01DX005 (ip), vehicle: Klucel (hydroxypropylcellulose) (HPC)

Measured: T/C

CN1COc2c(Cl)cc(Cl)cc2C1
inactive: [1] 95 % of control | [2] 90 % of control | dose: 100.0 mg/kg/injection, schedule: Q01DX009 (ip), vehicle: saline with Tween-80 86 % of control

O=C(O)c1cc2ccccc2c2c3c(ccc12)OCO3
inactive: [3] 95 % of control | [4] 100 % of control | [5] 100 % of control

COc1ccc(-c2cc3cc(OC)c(OC)cc3cn2)cc1OC
inactive: dose: 6.25 mg/kg/injection, schedule: Q01DX009 (ip), vehicle: suspension in saline 99 % of control | dose: 12.5 mg/kg/injection, schedule: Q01DX009 (ip), vehicle: suspension in saline 98 % of control | [6] 98 % of control | dose: 25.0 mg/kg/injection, schedule: Q01DX009 (ip), vehicle: suspension in saline 97 % of control | [7] 90 % of control

CC1(C)OC2OC(C3COS(=O)O3)C(Cl)C2O1 (stereo not drawn)
inactive: [3] 107 % of control | [4] 113 % of control | [5] 114 % of control

Cc1cc2c(=O)cc(-c3ccccc3Cl)oc2c(C#N)c1C
inactive: dose: 1.87 mg/kg/injection, schedule: Q01DX005 (ip), vehicle: Klucel (hydroxypropylcellulose) (HPC) 95 % of control | dose: 3.75 mg/kg/injection, schedule: Q01DX005 (ip), vehicle: Klucel (hydroxypropylcellulose) (HPC) 101 % of control | dose: 7.5 mg/kg/injection, schedule: Q01DX005 (ip), vehicle: Klucel (hydroxypropylcellulose) (HPC) 117 % of control | [8] 86 % of control | [9] 95 % of control

CN1CN(C)CN(Cc2ccc([N+](=O)[O-])cc2)C1
inactive: dose: 25.0 mg/kg/injection, schedule: Q01DX005 (ip), vehicle: Klucel (hydroxypropylcellulose) (HPC) 93 % of control | [10] 97 % of control | [11] 94 % of control | [12] 91 % of control

ClC1=C(Cl)C2(Cl)C3C(c4ccc(I)cc4C4C3C3(Cl)C(Cl)=C(Cl)C4(Cl)C3(Cl)Cl)C1(Cl)C2(Cl)Cl (stereo not drawn)
inactive: [7] 105 % of control | [13] 108 % of control | [14] 105 % of control

O=Cc1cccc(CC(O)(C(F)(F)F)C(F)(F)F)n1
inactive: dose: 12.5 mg/kg/injection, schedule: Q01DX009 (ip), vehicle: saline with Tween-80 95 % of control | dose: 12.5 mg/kg/injection, schedule: Q04DX003 (ip), vehicle: saline with Tween-80 100 % of control | [1] 100 % of control | dose: 25.0 mg/kg/injection, schedule: Q04DX003 (ip), vehicle: saline with Tween-80 100 % of control | [2] 100 % of control | dose: 50.0 mg/kg/injection, schedule: Q04DX003 (ip), vehicle: saline with Tween-80 95 % of control

COc1c2ccc(-c3ccccc3)oc-2cc(=O)c1C
inactive: dose: 2.0 mg/kg/injection, schedule: Q01DX005 (ip), vehicle: Klucel + Tween-80 100 % of control | dose: 4.0 mg/kg/injection, schedule: Q01DX005 (ip), vehicle: Klucel + Tween-80 100 % of control | dose: 8.0 mg/kg/injection, schedule: Q01DX005 (ip), vehicle: Klucel + Tween-80 109 % of control | dose: 16.0 mg/kg/injection, schedule: Q01DX005 (ip), vehicle: Klucel + Tween-80 92 % of control

COCN(C)N=Nc1ccc(C#N)cc1
inactive: [8] 100 % of control | [15] 117 % of control | [9] 117 % of control

CCCCCCC(=O)/C=C/c1ccc(C)cc1
inactive: [10] 100 % of control | [11] 100 % of control | [12] 94 % of control

CNC(=O)C(NC(=O)C(NC(=O)c1c2nc3c(C(=O)NC(C(=O)NC(C(=O)NC)C(C)C)C(C)O)ccc(C)c3oc-2c(C)c(=O)c1N)C(C)O)C(C)C (stereo not drawn)
inactive: dose: 0.05 mg/kg/injection, schedule: Q01DX009 (ip), vehicle: water 101 % of control | dose: 0.1 mg/kg/injection, schedule: Q01DX009 (ip), vehicle: water 110 % of control | dose: 0.2 mg/kg/injection, schedule: Q01DX009 (ip), vehicle: water 100 % of control | dose: 0.4 mg/kg/injection, schedule: Q01DX009 (ip), vehicle: water 99 % of control | dose: 0.8 mg/kg/injection, schedule: Q01DX009 (ip), vehicle: water 108 % of control | dose: 1.6 mg/kg/injection, schedule: Q01DX009 (ip), vehicle: water 99 % of control and 90 % of control | dose: 3.2 mg/kg/injection, schedule: Q01DX009 (ip), vehicle: water 97 % of control | dose: 6.4 mg/kg/injection, schedule: Q01DX009 (ip), vehicle: water 97 % of control | dose: 12.8 mg/kg/injection, schedule: Q01DX009 (ip), vehicle: water 99 % of control

C/C(=N\OCC(O)CNCCSCc1ccccc1)c1ccccc1Cl (stereo not drawn)
inactive: dose: 30.0 mg/kg/injection, schedule: Q01DX005 (ip), vehicle: Klucel (hydroxypropylcellulose) (HPC) 97 % of control | [8] 91 % of control | [15] 100 % of control and 91 % of control

O=S1(=O)CCN(Cc2ccccn2)CC1
inactive: [7] 94 % of control | [13] 94 % of control | [14] 91 % of control

CC(=O)C1=CN(Cc2ccccc2)C=C(C(C)C)C1
inactive: dose: 50.0 mg/kg/injection, schedule: Q04DX003 (ip), vehicle: saline 98 % of control | dose: 50.0 mg/kg/injection, schedule: Q04DX003 (ip), vehicle: suspension in saline 104 % of control | dose: 100.0 mg/kg/injection, schedule: Q04DX003 (ip), vehicle: saline 101 % of control | dose: 100.0 mg/kg/injection, schedule: Q04DX003 (ip), vehicle: suspension in saline 103 % of control | dose: 200.0 mg/kg/injection, schedule: Q04DX003 (ip), vehicle: saline 104 % of control | dose: 200.0 mg/kg/injection, schedule: Q04DX003 (ip), vehicle: suspension in saline 105 % of control

CCCCCC(CN(C)C)C(O)/C=C/c1ccc(Cl)c(Cl)c1 (stereo not drawn)
inactive: dose: 12.5 mg/kg/injection, schedule: Q01DX009 (ip), vehicle: saline 109 % of control | [6] 107 % of control

O=C(Cc1ccc2c(c1)OCO2)c1ccc(O)cc1O
inactive: [3] 99 % of control | [4] 105 % of control | [5] 98 % of control

Cn1cc(NC(=O)c2cc(NC(=O)c3cc(NC=O)cn3C)cn2C)cc1C(=O)NCCC(=N)N
inactive: dose: 15.0 mg/kg/injection, schedule: Q01DX005 (ip), vehicle: water 100 % of control | dose: 30.0 mg/kg/injection, schedule: Q01DX005 (ip), vehicle: water 101 % of control | dose: 60.0 mg/kg/injection, schedule: Q01DX005 (ip), vehicle: water 96 % of control | dose: 120.0 mg/kg/injection, schedule: Q01DX005 (ip), vehicle: water 104 % of control

CC(C)(C)[Si](C)(C)OCc1ccccc1N1C(=O)C(N=[N+]=[N-])C1/C=C/c1ccccc1 (stereo not drawn)
inactive: dose: 6.25 mg/kg/injection, schedule: Q01DX001 (ip), vehicle: Klucel (hydroxypropylcellulose) (HPC) 101 % of control | dose: 12.5 mg/kg/injection, schedule: Q01DX001 (ip), vehicle: Klucel (hydroxypropylcellulose) (HPC) 103 % of control | dose: 25.0 mg/kg/injection, schedule: Q01DX001 (ip), vehicle: Klucel (hydroxypropylcellulose) (HPC) 94 % of control | dose: 50.0 mg/kg/injection, schedule: Q01DX001 (ip), vehicle: Klucel (hydroxypropylcellulose) (HPC) 101 % of control | dose: 100.0 mg/kg/injection, schedule: Q01DX001 (ip), vehicle: Klucel (hydroxypropylcellulose) (HPC) 98 % of control | dose: 400.0 mg/kg/injection, schedule: Q01DX001 (ip), vehicle: saline with Tween-80 89 % of control

— PubChem BioAssay AID330 (DTP/NCI, 2004)
